Laboratory results from US9642869B2, “Boronic acid derivatives and therapeutic uses thereof” (Rempex Pharmaceuticals, Inc., priority 2013, dated 2017).
Like-named read-outs stand apart in the source and are kept apart here.

Tests used:
CTX-M-14 KP1005 = assay type: cell-based
SHV-5 ec308 [1] = assay type: cell-based; settings: minimum BLI concentration inhibiting growth with tigemonam at 4 μg/mL
SHV-5 ec308 [2] = assay: Aztreonam potentiation (MPC@4); assay type: cell-based; settings: minimum BLI concentration inhibiting growth with 4 μg/mL aztreonam
CTX-M-15 KP1009 = assay type: cell-based
OXA-48 KP1086 = assay: Biapenem potentiation (MPC@1); assay type: cell-based; settings: minimum BLI concentration inhibiting growth with 1 μg/mL biapenem
Description: (§1) Biapenem was present in the test medium at 1 μg/mL. […] Table 3 summarizes the BLI potency of biapenem potentiation (MPC@1) for two strains overexpressing class A (KPC) and class D (OXA-48) carbapenemases. Biapenem MIC for each strain is also shown.

KP1004 KPC-2 = assay: Biapenem potentiation (MPC@1); assay type: cell-based; settings: minimum BLI concentration inhibiting growth with 1 μg/mL biapenem
Description: as §1

ECL1002 [3] = assay type: cell-based; settings: minimum BLI concentration inhibiting growth with tigemonam at 4 μg/mL
ECL1002 [4] = assay: Aztreonam potentiation (MPC@4); assay type: cell-based; settings: minimum BLI concentration inhibiting growth with 4 μg/mL aztreonam
[5] = Intravenous pharmacokinetics; assay type: in vivo; settings: rat, plasma, rats, IV infusion over 0.5 hours, read-out: Free Cl (converted)
Description: Rats (n=3 per compound) were administered by a single infusion. IV doses were infused over 0.5 hours via an indwelling femoral vein cannula. Plasma (˜0.3 mL) samples were collected from each rat at designated time points up to 24 hours. Blood samples were centrifuged within 5 min of collection at 12000 g for 5 min to obtain plasma. The plasma samples were stored at −80° C. until analyzed. Data were analyzed using WinNonlin.

KPC-2 KP1004 = assay: Aztreonam potentiation (MPC@4); assay type: cell-based; settings: minimum BLI concentration inhibiting growth with 4 μg/mL aztreonam
SHV-12 = SHV-12 (Klebsiella pneumoniae, UniProt P0AD64, E235K/G234S/L31Q); assay: Inhibition of nitrocefin cleavage by purified enzyme (Ki); assay type: biochemical; settings: nitrocefin reporter substrate, 10 min preincubation; read-out: Ki (SHV-12, NCF)
SHV-12, sequence (P0AD64 22-286 L31Q/G234S/E235K): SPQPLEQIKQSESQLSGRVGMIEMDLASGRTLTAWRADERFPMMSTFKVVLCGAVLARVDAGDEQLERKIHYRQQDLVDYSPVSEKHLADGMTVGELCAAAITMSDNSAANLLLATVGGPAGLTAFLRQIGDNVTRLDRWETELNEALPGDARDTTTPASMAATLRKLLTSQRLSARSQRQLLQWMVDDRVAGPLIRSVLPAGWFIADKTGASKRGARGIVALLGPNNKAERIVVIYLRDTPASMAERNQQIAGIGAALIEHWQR
Description: Purified enzymes were mixed with various concentrations of inhibitors in reaction buffer and incubated for 10 min at room temperature. Nitrocefin was added and substrate cleavage profiles were recorded at 490 nm every 10 sec for 10 min.

[6] = Serum stability of prodrugs (hydrolysis by human serum); assay type: in vitro ADME; settings: 37° C.
Description: (§2) Prodrug strategy is one of the ways to achieve or increase oral bioavailability of therapeutic drugs. Compound 13 was used as template a for various ester prodrugs. After a prodrug molecule is absorbed into systemic circulation, the prodrug molecule can be hydrolyzed in the blood to release the active form. The hydrolysis of several prodrugs by rat and human serum were evaluated.
(§3) For all stability experiments the test compounds are treated with rat or human serum in Eppendorf tubes. One example of the testing procedures includes: 992 μl of serum was prewarmed at 37° C. for 2 minutes and then 8 μl of a compound (at 5 mg/ml, 125×) was added to get a final concentration of 40 μg/ml and immediately mixed. Alternatively, serum stability can be tested at 1 mg/ml. […] After vortexing for 30 seconds, the tube was centrifuged in a microcentrifuge for 10 minutes at 15K rpm. Next, 100 μl of the supernatant was combined with 600 μl of water and injected on LC-MS using 0.1% formic acid in water for mobile phase A and 0.1% formic acid in methanol for mobile phase B on an ACE 5 C18 2.1×100 mm column with a 10 μL injection. The flow rate and gradient are adjusted as needed to give the desired resolution and run time. The pH of the mobile phase is adjusted if needed to improve the chromatography.
(§4) The time course of both the disappearance of a prodrug and the appearance of the active form of that prodrug is presented in Table 9a and Table 9b.

[7] = Serum stability of prodrugs (hydrolysis by rat serum); assay type: in vitro ADME; settings: 37° C.
Description: as §2, §3, §4

[8] = minimum BLI concentration inhibiting growth with tigemonam at 4 μg/mL

| Measured Initial Conc. in Serum (prodrug) [6] | Conc. at t = 2 hr (prodrug) [6] | Conc. at t = 4 hr (prodrug) [6] | Measured Initial Conc. in Serum (prodrug) [7] | Conc. at t = 2 hr (prodrug) [7] | Conc. at t = 4 hr (prodrug) [7] | Structure (SMILES) | TIG MPC4 CTX-M-14 KP1005 (CTX-M-14 KP1005) | TIG MPC4 SHV-5 ec308 (SHV-5 ec308 [1]) | AZT MPC4 SHV-5 ec308 (SHV-5 ec308 [2]) | TIG MPC4 CTX-M-15 KP1009 (CTX-M-15 KP1009) | BPM MPC1 OXA-48 KP1086 (OXA-48 KP1086) | BPM MPC1 KP1004 KPC-2 (KP1004 KPC-2) | TIG MPC4 ECL1002 (ECL1002 [3]) | AZT MPC4 ECL1002 (ECL1002 [4]) | clearance ([5]; dose 20 mg/kg) | AZT MPC4 KPC-2 KP1004 (KPC-2 KP1004) | Ki (SHV-12) | clearance ([5]; dose 10 mg/kg) | TIG MPC4 CTX-M-14 KP1005 (CTX-M-14 KP1005; [8]) | TIG MPC4 CTX-M-15 KP1009 (CTX-M-15 KP1009; [8]) |
| --- | --- | --- | --- | --- | --- | --- | --- | --- | --- | --- | --- | --- | --- | --- | --- | --- | --- | --- | --- | --- |
|  |  |  |  |  |  | Nc1nnc(SCC(=O)N[C@H]2Cc3cccc(C(=O)O)c3OB2O)s1 [Compound 5, (R)-3-(2-(5-amino-1,3,4-thiadiazol-2-ylthio)acetamido)-2-hydroxy-3,4-dihydro-2H-benzo[e][1,2]oxaborinine-8-carboxylic acid] | X (key: X: MIC of less than 1 μg/mL; Y: MIC of 1 μg/mL to 10 μg/mL; Z: MIC of greater than 10 μg/mL) | Y (MIC of 1 μg/mL to 10 μg/mL) | X (MIC of less than 1 μg/mL) | X (key: X: MIC of less than 1 μg/mL; Y: MIC of 1 μg/mL to 10 μg/mL; Z: MIC of greater than 10 μg/mL) | Y (MIC of 1 μg/mL to 10 μg/mL) | X (MIC of less than 1 μg/mL) | X (MIC of less than 1 μg/mL) | Y (MIC of 1 μg/mL to 10 μg/mL) | 28.5 mL/min/kg | Y (MIC of 1 μg/mL to 10 μg/mL) |  |  |  |  |
|  |  |  |  |  |  | O=C(CSc1nncs1)N[C@H]1Cc2cccc(C(=O)O)c2OB1O [Compound 7, (R)-3-(2-(1,3,4-thiadiazol-2-ylthio)acetamido)-2-hydroxy-3,4-dihydro-2H-benzo[e][1,2]oxaborinine-8-carboxylic acid] | X (key: X: MIC of less than 1 μg/mL; Y: MIC of 1 μg/mL to 10 μg/mL; Z: MIC of greater than 10 μg/mL) | X (MIC of less than 1 μg/mL) | X (MIC of less than 1 μg/mL) | X (key: X: MIC of less than 1 μg/mL; Y: MIC of 1 μg/mL to 10 μg/mL; Z: MIC of greater than 10 μg/mL) | Y (MIC of 1 μg/mL to 10 μg/mL) | X (MIC of less than 1 μg/mL) | Y (MIC of 1 μg/mL to 10 μg/mL) | Y (MIC of 1 μg/mL to 10 μg/mL) | 60.7 mL/min/kg | Y (MIC of 1 μg/mL to 10 μg/mL) | < 1 nM |  |  |  |
| 1520 µg/mL | 920 µg/mL | 790 µg/mL | 1380 µg/mL | 1150 µg/mL | 1080 µg/mL | CCC(CC)C(=O)OCOC(=O)c1cccc2c1OB(O)[C@@H](NC(=O)CSC)C2 [Compound 26, (R)-(2-ethylbutanoyloxy)methyl 2-hydroxy-3-(2-(methylthio)acetamido)-3,4-dihydro-2H-benzo[e][1,2]oxaborinine-8-carboxylate] |  |  |  |  |  |  |  |  |  |  |  |  |  |  |
|  |  |  |  |  |  | O=C(N[C@H]1Cc2cccc(C(=O)O)c2OB1O)c1cccnc1 [Compound 12, (R)-2-hydroxy-3-(nicotinamido)-3,4-dihydro-2H-benzo[e][1,2]oxaborinine-8-carboxylic acid] | Y (key: X: MIC of less than 1 μg/mL; Y: MIC of 1 μg/mL to 10 μg/mL; Z: MIC of greater than 10 μg/mL) | Y (MIC of 1 μg/mL to 10 μg/mL) | Y (MIC of 1 μg/mL to 10 μg/mL) | Y (key: X: MIC of less than 1 μg/mL; Y: MIC of 1 μg/mL to 10 μg/mL; Z: MIC of greater than 10 μg/mL) | Y (MIC of 1 μg/mL to 10 μg/mL) | X (MIC of less than 1 μg/mL) | X (MIC of less than 1 μg/mL) | X (MIC of less than 1 μg/mL) |  | Y (MIC of 1 μg/mL to 10 μg/mL) | < 1 nM | 45.7 mL/min/kg |  |  |
|  |  |  |  |  |  | [N-]=[N+]=NCC(=O)N[C@H]1Cc2cccc(C(=O)O)c2OB1O [Compound 8, (R)-3-(2-azidoacetamido)-2-hydroxy-3,4-dihydro-2H-benzo[e][1,2]oxaborinine-8-carboxylic acid] | X (key: X: MIC of less than 1 μg/mL; Y: MIC of 1 μg/mL to 10 μg/mL; Z: MIC of greater than 10 μg/mL) | Y (MIC of 1 μg/mL to 10 μg/mL) | X (MIC of less than 1 μg/mL) | X (key: X: MIC of less than 1 μg/mL; Y: MIC of 1 μg/mL to 10 μg/mL; Z: MIC of greater than 10 μg/mL) | Y (MIC of 1 μg/mL to 10 μg/mL) | X (MIC of less than 1 μg/mL) | X (MIC of less than 1 μg/mL) | Y (MIC of 1 μg/mL to 10 μg/mL) |  | X (MIC of less than 1 μg/mL) | < 1 nM | 35 mL/min/kg |  |  |
| 27.3 µg/mL | NDT | NDT | 31.2 µg/mL | 1.94 µg/mL | NDT | CCCC(=O)OCOC(=O)c1cccc2c1OB(O)[C@@H](NC(=O)CSC)C2 [Compound 25, (R)-butyryloxymethyl 2-hydroxy-3-(2-(methylthio)acetamido)-3,4-dihydro-2H-benzo[e][1,2]oxaborinine-8-carboxylate] |  |  |  |  |  |  |  |  |  |  |  |  |  |  |
| 1860 µg/mL | 1350 µg/mL | 1000 µg/mL | 1780 µg/mL | 1440 µg/mL | 1100 µg/mL | CSCC(=O)N[C@H]1Cc2cccc(C(=O)OCOC(=O)C(C)(C)C)c2OB1O [Compound 23, (R)-pivaloyloxymethyl 2-hydroxy-3-(2-(methylthio)acetamido)-3,4-dihydro-2H-benzo[e][1,2]oxaborinine-8-carboxylate] |  |  |  |  |  |  |  |  |  |  |  |  |  |  |
| 1790 µg/mL | 550 µg/mL | 240 µg/mL | 1660 µg/mL | 910 µg/mL | 330 µg/mL | CSCC(=O)N[C@H]1Cc2cccc(C(=O)OCOC(=O)OC(C)C)c2OB1O [Compound 24, (R)-(isopropoxycarbonyloxy)methyl 2-hydroxy-3-(2-(methylthio)acetamido)-3,4-dihydro-2H-benzo[e][1,2]oxaborinine-8-carboxylate] |  |  |  |  |  |  |  |  |  |  |  |  |  |  |
|  |  |  |  |  |  | O=C(CSC(F)(F)F)N[C@H]1Cc2cccc(C(=O)O)c2OB1O [Compound 1, (R)-2-hydroxy-3-(2-(trifluoromethylthio)acetamido)-3,4-dihydro-2H-benzo[e][1,2]oxaborinine-8-carboxylic acid] |  | X (MIC of less than 1 μg/mL) | X (MIC of less than 1 μg/mL) |  | Y (MIC of 1 μg/mL to 10 μg/mL) | X (MIC of less than 1 μg/mL) | X (MIC of less than 1 μg/mL) | Y (MIC of 1 μg/mL to 10 μg/mL) |  | Y (MIC of 1 μg/mL to 10 μg/mL) | < 1 nM |  | Y (MIC of 1 μg/mL to 10 μg/mL) | Y (MIC of 1 μg/mL to 10 μg/mL) |
